Measurements as given in ChEMBL document CHEMBL4004838, “Design and synthesis of novel phenyl -1, 4-beta-carboline-hybrid molecules as potential anticancer agents” (Eur J Med Chem, 2017).
Calls of active or inactive are those of the source. The calls are words filed in the database; no cut-off is given here.

Experiments:
Bos taurus = organism: Bos taurus; assay: Binding affinity to calf thymus DNA assessed as induction of hyperchromic shift at 20 uM sonicated for 35 to 40 mins by UV-vis spectrophotometric analysis
NCI-H322M = assay: Growth inhibition of human NCI-H322M cells incubated for 48 hrs by sulforhodamine B assay; format: functional
SK-MEL-2 = assay: Growth inhibition of human SK-MEL-2 cells incubated for 48 hrs by sulforhodamine B assay; format: functional; conditions: SK-MEL-2, 48 h
UACC-257 = assay: Growth inhibition of human UACC257 cells incubated for 48 hrs by sulforhodamine B assay; format: functional; conditions: UACC-257, 48 h
PC-3 [1] = assay: Growth inhibition of human PC3 cells incubated for 48 hrs by sulforhodamine B assay; format: functional; conditions: PC-3, 48 h
MDA-MB-231 = assay: Growth inhibition of human MDA-MB-231 cells incubated for 48 hrs by sulforhodamine B assay; format: functional; conditions: MDA-MB-231, 48 h
HCC 2998 = assay: Growth inhibition of human HCC2998 cells assessed as cell growth at 0.01 uM incubated for 48 hrs by sulforhodamine B assay relative to control; format: functional; conditions: HCC 2998, 48 h, read-out: Activity
SNB-19 = assay: Growth inhibition of human SNB19 cells assessed as cell growth at 0.01 uM incubated for 48 hrs by sulforhodamine B assay relative to control; format: functional; conditions: SNB-19, 48 h, read-out: Activity
M14 [2] = assay: Growth inhibition of human M14 cells assessed as cell growth at 0.01 uM incubated for 48 hrs by sulforhodamine B assay relative to control; format: functional; conditions: M14, 48 h, read-out: Activity
SK-OV-3 = assay: Growth inhibition of human SKOV3 cells assessed as cell growth at 0.01 uM incubated for 48 hrs by sulforhodamine B assay relative to control; format: functional; conditions: SK-OV-3, 48 h, read-out: Activity
A498 [3] = assay: Growth inhibition of human A498 cells assessed as cell growth at 0.01 uM incubated for 48 hrs by sulforhodamine B assay relative to control; format: functional; conditions: A498, 48 h, read-out: Activity
BT-549 [4] = assay: Growth inhibition of human BT549 cells assessed as cell growth at 0.01 uM incubated for 48 hrs by sulforhodamine B assay relative to control; format: functional; conditions: BT-549, 48 h, read-out: Activity
HL-60(TB) = assay: Growth inhibition of human HL-60(TB) cells assessed as cell growth at 0.1 uM incubated for 48 hrs by sulforhodamine B assay relative to control; format: functional; conditions: HL-60, 48 h, read-out: Activity
K562 = assay: Growth inhibition of human K562 cells assessed as cell growth at 0.1 uM incubated for 48 hrs by sulforhodamine B assay relative to control; format: functional; conditions: K562, 48 h, read-out: Activity
HOP-92 [5] = assay: Growth inhibition of human HOP92 cells assessed as cell growth at 0.1 uM incubated for 48 hrs by sulforhodamine B assay relative to control; format: functional; conditions: HOP-92, 48 h, read-out: Activity
NCI-H23 = assay: Growth inhibition of human NCI-H23 cells assessed as cell growth at 0.1 uM incubated for 48 hrs by sulforhodamine B assay relative to control; format: functional; conditions: NCI-H23, 48 h, read-out: Activity
HCT-116 = assay: Growth inhibition of human HCT116 cells assessed as cell growth at 0.1 uM incubated for 48 hrs by sulforhodamine B assay relative to control; format: functional; conditions: HCT-116, 48 h, read-out: Activity
PC-3 [6] = assay: Growth inhibition of human PC3 cells assessed as cell growth at 0.1 uM incubated for 48 hrs by sulforhodamine B assay relative to control; format: functional; conditions: PC-3, 48 h, read-out: Activity
DU-145 = assay: Growth inhibition of human DU145 cells assessed as cell growth at 0.1 uM incubated for 48 hrs by sulforhodamine B assay relative to control; format: functional; conditions: DU-145, 48 h, read-out: Activity
MDA-MB-468 [7] = assay: Growth inhibition of human MDA-MB-468 cells assessed as cell growth at 0.1 uM incubated for 48 hrs by sulforhodamine B assay relative to control; format: functional; conditions: MDA-MB-468, 48 h, read-out: Activity
NCI-H460 = assay: Growth inhibition of human NCI-H460 cells assessed as cell growth at 1 uM incubated for 48 hrs by sulforhodamine B assay relative to control; format: functional; conditions: NCI-H460, 48 h, read-out: Activity
HT-29 = assay: Growth inhibition of human HT-29 cells assessed as cell growth at 1 uM incubated for 48 hrs by sulforhodamine B assay relative to control; format: functional; conditions: HT-29, 48 h, read-out: Activity
M14 [8] = assay: Growth inhibition of human M14 cells assessed as cell growth at 1 uM incubated for 48 hrs by sulforhodamine B assay relative to control; format: functional; conditions: M14, 48 h, read-out: Activity
A498 [9] = assay: Growth inhibition of human A498 cells assessed as cell growth at 1 uM incubated for 48 hrs by sulforhodamine B assay relative to control; format: functional; conditions: A498, 48 h, read-out: Activity
HOP-92 [10] = assay: Growth inhibition of human HOP92 cells assessed as cell growth at 100 uM incubated for 48 hrs by sulforhodamine B assay relative to control; format: functional; conditions: HOP-92, 48 h, read-out: Activity
M14 [11] = assay: Growth inhibition of human M14 cells assessed as cell growth at 100 uM incubated for 48 hrs by sulforhodamine B assay relative to control; format: functional; conditions: M14, 48 h, read-out: Activity
NCI/ADR-RES = assay: Growth inhibition of human NCI-ADR-RES cells assessed as cell growth at 100 uM incubated for 48 hrs by sulforhodamine B assay relative to control; format: functional; conditions: read-out: Activity
UO-31 = assay: Growth inhibition of human UO31 cells assessed as cell growth at 100 uM incubated for 48 hrs by sulforhodamine B assay relative to control; format: functional; conditions: UO-31, 48 h, read-out: Activity
BT-549 [12] = assay: Growth inhibition of human BT549 cells assessed as cell growth at 100 uM incubated for 48 hrs by sulforhodamine B assay relative to control; format: functional; conditions: BT-549, 48 h, read-out: Activity
T47D = assay: Growth inhibition of human T47D cells assessed as cell growth at 100 uM incubated for 48 hrs by sulforhodamine B assay relative to control; format: functional; conditions: read-out: Activity
MDA-MB-468 [13] = assay: Growth inhibition of human MDA-MB-468 cells assessed as cell growth at 100 uM incubated for 48 hrs by sulforhodamine B assay relative to control; format: functional; conditions: MDA-MB-468, 48 h, read-out: Activity
[14] = read-out: LC50 (the source's name)
[15] = read-out: pLC50 (the source's name) (converted)

`c1ccc2c3c([nH]c2c1)C(c1ccc(C2NCCc4c2[nH]c2ccccc42)cc1)NCC3` (racemic) was tested, and the Activity (Bos taurus) was “Active”, the GI50 (NCI-H322M; read-out: GI50) was 1.25 µM and the CC50 (NCI-H322M; [14]) was 5.68 µM. It also gave a TGI (NCI-H322M; read-out: TGI) of 2.66 µM, a GI50 (NCI-H322M; read-out: pGI50 (converted)) of 1.26 µM and a CC50 (NCI-H322M; [15]) of 5.62 µM. For the same compound, the TGI (NCI-H322M; read-out: pTGI (converted)) was 2.69 µM, the GI50 (SK-MEL-2; read-out: GI50) was 1.7 µM and the CC50 (SK-MEL-2; [14]) was 7.47 µM. It also gave a TGI (SK-MEL-2; read-out: TGI) of 3.57 µM, a GI50 (SK-MEL-2; read-out: pGI50 (converted)) of 1.7 µM and a CC50 (SK-MEL-2; [15]) of 7.41 µM. It also gave a TGI (SK-MEL-2; read-out: pTGI (converted)) of 3.55 µM, a GI50 (UACC-257; read-out: GI50) of 1.19 µM and a CC50 (UACC-257; [14]) of 6.5 µM. It also gave a TGI (UACC-257; read-out: TGI) of 3.52 µM, a GI50 (UACC-257; read-out: pGI50 (converted)) of 1.91 µM and a CC50 (UACC-257; [15]) of 6.46 µM. For the same compound, the TGI (UACC-257; read-out: pTGI (converted)) was 3.55 µM, the GI50 (PC-3 [1]; read-out: GI50) was 1.27 µM and the CC50 (PC-3 [1]; [14]) was 5.69 µM. For the same compound, the TGI (PC-3 [1]; read-out: TGI) was 2.69 µM, the GI50 (PC-3 [1]; read-out: pGI50 (converted)) was 1.26 µM and the CC50 (PC-3 [1]; [15]) was 5.75 µM. The TGI (PC-3 [1]; read-out: pTGI (converted)) was 2.69 µM, the GI50 (MDA-MB-231; read-out: GI50) was 2.96 µM and the CC50 (MDA-MB-231; [14]) was 3.64 µM. For the same compound, the TGI (MDA-MB-231; read-out: TGI) was 9.36 µM, the GI50 (MDA-MB-231; read-out: pGI50 (converted)) was 0.295 µM and the CC50 (MDA-MB-231; [15]) was 3.63 µM. It also gave a growth at 0.01 µM (HCC 2998) of 91%, a growth at 0.01 µM (SNB-19) of 97% and a growth at 0.01 µM (M14 [2]) of 92%. The growth at 0.01 µM (SK-OV-3) was 91%, the growth at 0.01 µM (A498 [3]) was 73% and the growth at 0.01 µM (BT-549 [4]) was 87%. The growth at 0.1 µM (HL-60(TB)) was 116%, the growth at 0.1 µM (K562) was 114% and the growth at 0.1 µM (HOP-92 [5]) was 87%. For the same compound, the growth at 0.1 µM (NCI-H23) was 88%, the growth at 0.1 µM (HCT-116) was 89% and the growth at 0.1 µM (PC-3 [6]) was 94%. The growth at 0.1 µM (DU-145) was 100%, the growth at 0.1 µM (MDA-MB-468 [7]) was 100% and the growth at 1 µM (NCI-H460) was 56%. For the same compound, the growth at 1 µM (HT-29) was 16%, the growth at 1 µM (M14 [8]) was 21% and the growth at 1 µM (A498 [9]) was 65%. For the same compound, the growth at 100 µM (HOP-92 [10]) was 90%, the growth at 100 µM (M14 [11]) was 95% and the growth at 100 µM (NCI/ADR-RES) was -30%. It also gave a growth at 100 µM (UO-31) of -96%, a growth at 100 µM (BT-549 [12]) of -90% and a growth at 100 µM (T47D) of -72%. The growth at 100 µM (MDA-MB-468 [13]) was -78%.
